Measured values reported in PMC4845012, “Unique behavior of Trypanosoma cruzi mevalonate kinase: A conserved glycosomal enzyme involved in host cell invasion and signaling” (Scientific Reports, 2016).
Where “and” joins values, the source holds several entries; their conditions need not be identical. Equal entries are not always repeated.

Columns and labels:
[1] = biological target: recombinant Trypanosoma cruzi mevalonate kinase (rTcMVK) (Trypanosoma cruzi (G strain)); experiment: SEC; Superdex 200 High Load 16/60 prep-grade, glycine buffer pH 9.0 with 0.15 M NaCl, after Ni-NTA; separates the oligomerization states of rTcMVK
rTcMVK = biological target: T1, rTcMVK (Trypanosoma cruzi, UniProt A0A165UDJ0); experiment: coupled pyruvate kinase / lactate dehydrogenase assay, NADH at […] nm; format: biochemical; conditions: MgCl2 […], glycine pH […] °C, dimer
T1 construct: gene MVK; N-terminal His6 tag (pET-28a, BamHI/HindIII), E. coli BL21; native 34 kDa; active dimer fraction from gel filtration
T1 sequence (A0A165UDJ0 43-364 limits assumed): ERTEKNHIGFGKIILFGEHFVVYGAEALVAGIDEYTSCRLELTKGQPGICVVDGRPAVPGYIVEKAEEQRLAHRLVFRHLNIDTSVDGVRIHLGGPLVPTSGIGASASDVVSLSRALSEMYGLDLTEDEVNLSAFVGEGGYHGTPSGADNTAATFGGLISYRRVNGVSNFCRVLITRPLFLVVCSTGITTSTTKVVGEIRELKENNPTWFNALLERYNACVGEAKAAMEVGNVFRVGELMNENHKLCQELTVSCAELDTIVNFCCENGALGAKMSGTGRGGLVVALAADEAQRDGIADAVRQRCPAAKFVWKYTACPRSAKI

recombinant Trypanosoma cruzi mevalonate kinase (rTcMVK) (enzyme)
stoichiometry N [1]: 4 and 2

Nc1ncnc2c1ncn2[C@@H]1O[C@H](COP(=O)(O)OP(=O)(O)OP(=O)(O)O)[C@@H](O)[C@H]1O [ATP]
coupled pyruvate kinase / lactate dehydrogenase assay, NADH at 340 nm (rTcMVK; mevalonate […], blank without ATP): Blank assays were performed in the absence of ATP.

CC(O)(CCO)CC(=O)O (racemic) [(RS)-mevalonic acid]
coupled pyruvate kinase / lactate dehydrogenase assay, NADH at 340 nm (rTcMVK; ATP […], racemic mevalonate […] from hydrolysed lactone): In vitro assays using synthetic mevalonic acid confirmed enzymatic activity of recombinant TcMVK
